Test results as given in ChEMBL document CHEMBL1145569, “Design, synthesis, and evaluation of inhibitors of cathepsin L: Exploiting a unique thiocarbazate chemotype” (Bioorg Med Chem Lett, 2008).
Activity calls are given as the source filed them. The rule behind the calls is not given here.

What follows are compounds tested against Procathepsin L (Homo sapiens, UniProt P07711) (assay: Inhibition of human cathepsin L).

Structure (SMILES) | Activity | IC50 [nM]
CC(C)(C)OC(=O)N[C@@H](Cc1c[nH]c2ccccc12)C(=O)NNC(=O)CCC(=O)N1CCCc2ccccc21 | inactive | 
CC(C)(C)OC(=O)N[C@@H](Cc1c[nH]c2ccccc12)C(=O)NNC(=O)NCC(=O)N1CCCc2ccccc21 |  | 3000
CC(C)(C)OC(=O)N[C@@H](Cc1c[nH]c2ccccc12)C(=O)NNC(=O)OCC(=O)N1CCCc2ccccc21 |  | 7
CC(C)(C)OC(=O)N[C@@H](Cc1c[nH]c2ccccc12)C(=O)NNC(=O)SC1CCN(c2ccccc2)C1=O (some centres undefined) |  | 110
CCc1ccccc1NC(=O)CSC(=O)NNC(=O)[C@H](Cc1ccccc1)NC(=O)OC(C)(C)C |  | 115
COC(=O)CSC(=O)NNC(=O)[C@H](Cc1c[nH]c2ccccc12)NC(=O)OC(C)(C)C |  | 201
CC(C)(C)OC(=O)N[C@@H](Cc1c[nH]c2ccccc12)C(=O)NNC(=O)SCC(=O)N1CCCc2ccccc21 |  | 41
CCc1ccccc1NC(=O)CSC(=O)NNC(=O)CCc1c[nH]c2ccccc12 |  | 21800
CCc1ccccc1NC(=O)CSC(=O)NNC(=O)CNC(=O)OC(C)(C)C | inactive | 
